Molecules are shown by their SMILES.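 Step 1: Grow cells in 96-well plates. Step 2: Expose to compound for 48 hours at 5 concentrations. Step 3: Interpolate endpoints linearly; if unreached, use highest concentration. GI50 is the concentration that inhibits growth by half. TGI denotes the concentration required for complete inhibition of growth.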

Among the test systems are COLO 205 colon; EKVX NSCLC; HCT-116 colon; HOP-92 NSCLC; M14 melanoma; MOLT-4 leukemia; NCI-H226 lung; OVCAR-3 ovarian; SF-539 CNS; UACC-62 melanoma.
Experiment in all cases: inhibition of tumour cell growth, NCI panel, 48 h

For the compound `O=C(Nc1ccc(-n2cc(-c3ccncc3)c(-c3ccc(O)c(Cl)c3)n2)cc1)c1ccc(Cl)c(Cl)c1`, the GI50 with COLO 205 colon was more than 32.5 µM; with EKVX NSCLC, 30.5 µM; in the test with HCT-116 colon, 1.23 µM; with HOP-92 NSCLC it was 0.819 µM; in the test with M14 melanoma it was 0.668 µM; in the test on MOLT-4 leukemia it was 1.37 µM. In addition, the GI50 in the test with NCI-H226 lung is more than 32.5 µM; with OVCAR-3 ovarian, 2.11 µM; with SF-539 CNS, 0.656 µM; in the test with UACC-62 melanoma it was 2.48 µM. For the same compound, the TGI in the test on COLO 205 colon is more than 32.5 µM; in the test with EKVX NSCLC it was more than 32.5 µM; in the test with HCT-116 colon it was more than 32.5 µM; in the test on HOP-92 NSCLC it was 20.5 µM; in the test on M14 melanoma it was 1.52 µM; with MOLT-4 leukemia it was more than 32.5 µM. Also, the TGI in the test on NCI-H226 lung was more than 32.5 µM; in the test on OVCAR-3 ovarian, more than 32.5 µM; in the test on SF-539 CNS, 2.25 µM; with UACC-62 melanoma, more than 32.5 µM.
On to `CCN(CC)CCSc1nc2c([N+](=O)[O-])cccc2[nH]1`, for which the TGI in the test on COLO 205 colon, with EKVX NSCLC, with HOP-92 NSCLC, in the test with M14 melanoma, in the test on MOLT-4 leukemia and with NCI-H226 lung was more than 100 µM in each case. For the same compound, the TGI in the test on OVCAR-3 ovarian, with SF-539 CNS and with UACC-62 melanoma was more than 100 µM throughout.
Turning to `CCCCCCCCCCCCCCCc1ccc(C(=O)C[n+]2ccccc2)cc1`, the GI50 was 0.475 µM in the test on COLO 205 colon; 1.82 µM in the test with EKVX NSCLC; 0.295 µM in the test with HOP-92 NSCLC; 4.15 µM in the test with NCI-H226 lung; 1.79 µM in the test with OVCAR-3 ovarian. The TGI was 1.67 µM with COLO 205 colon; 8.72 µM with EKVX NSCLC; 3.93 µM with HOP-92 NSCLC; more than 100 µM in the test with NCI-H226 lung; 3.64 µM in the test on OVCAR-3 ovarian.
As for `CNC1=C(C)C(=O)C2=C(C1=O)C(COC(N)=O)C1(OC)C3NC3CN21` (stereo unspecified), the TGI in the test with COLO 205 colon is 1.35 µM; with EKVX NSCLC, more than 100 µM; with HCT-116 colon it was more than 100 µM; in the test on M14 melanoma, 2.01 µM; with MOLT-4 leukemia, more than 100 µM; with NCI-H226 lung, 4.66 µM. Further, the values for the TGI in the test with OVCAR-3 ovarian, in the test on SF-539 CNS and in the test on UACC-62 melanoma were 21.6 µM, 1.92 µM and 1.55 µM, respectively.
Take `N=C(N)c1ccc(-c2ccc(-c3ccccc3)o2)cc1`: the GI50 in the test with COLO 205 colon is 1.66 µM; with EKVX NSCLC, 2.61 µM; with HOP-92 NSCLC it was 1.95 µM; in the test with M14 melanoma, 1.77 µM; with NCI-H226 lung it was 7.93 µM; with OVCAR-3 ovarian, 3.3 µM. In addition, the GI50 in the test with SF-539 CNS is 1.65 µM. Besides, the TGI in the test on COLO 205 colon was determined as 3.42 µM; with EKVX NSCLC, 11.8 µM; in the test on HOP-92 NSCLC, 4.14 µM; in the test with M14 melanoma, 3.66 µM; with NCI-H226 lung, 27.7 µM; with OVCAR-3 ovarian, 13.4 µM. Moreover, the TGI in the test on SF-539 CNS was determined as 3.38 µM.
Consider `CC(=O)Nc1ccc2c(c1)C(=Nc1ccc(C(=O)O)cc1)c1ccccc1-2`, for which the TGI in the test with COLO 205 colon is more than 100 µM; in the test with EKVX NSCLC, 84.9 µM; in the test with HCT-116 colon it was more than 100 µM; with HOP-92 NSCLC, more than 100 µM; in the test with M14 melanoma it was more than 100 µM; in the test on MOLT-4 leukemia, more than 100 µM. In addition, the TGI in the test on NCI-H226 lung is 87.1 µM; in the test with OVCAR-3 ovarian, more than 100 µM; in the test on UACC-62 melanoma, more than 100 µM.
In the case of `Nc1cccc2cc(S(=O)(=O)Nc3ccc(C(=O)O)cc3)ccc12`, the TGI in the test on COLO 205 colon, in the test on EKVX NSCLC, in the test with HCT-116 colon, with HOP-92 NSCLC, with M14 melanoma and in the test with NCI-H226 lung was more than 100 µM throughout. The TGI in the test with OVCAR-3 ovarian and in the test on UACC-62 melanoma was more than 100 µM throughout.
For the compound `CSc1nc(NC2OC(CO)C(O)C(O)C2O)c(N)c(=O)n1C` (stereo unspecified), the TGI with COLO 205 colon, in the test with EKVX NSCLC, in the test with HCT-116 colon, in the test on HOP-92 NSCLC, in the test with MOLT-4 leukemia and in the test with NCI-H226 lung was more than 100 µM each time. Moreover, the TGI with OVCAR-3 ovarian, with SF-539 CNS and in the test with UACC-62 melanoma was more than 100 µM throughout.
Turning to `COc1ccc(C2C(Cl)C(=O)N2NC(=O)c2ccc(NC(C)=O)cc2)cc1OC` (stereo unspecified), the TGI with COLO 205 colon, in the test with HCT-116 colon, in the test with HOP-92 NSCLC, in the test on MOLT-4 leukemia, in the test with NCI-H226 lung and with OVCAR-3 ovarian was more than 100 µM each time. In addition, the TGI in the test with SF-539 CNS and in the test with UACC-62 melanoma was more than 100 µM throughout.
On to `NC(=O)OCc1c(O)c2c(c(O)c1COC(N)=O)C(=O)C=CC2=O`, for which the TGI with COLO 205 colon, with EKVX NSCLC, in the test on HCT-116 colon, with HOP-92 NSCLC, in the test on M14 melanoma and in the test on MOLT-4 leukemia was more than 100 µM each time. Also, the TGI with NCI-H226 lung, with OVCAR-3 ovarian, in the test with SF-539 CNS and in the test on UACC-62 melanoma was more than 100 µM in each case.
